Data set [1] can be described thus: Selectivity index, ratio CC50 for cytotoxicity against human MCF7 cells to EC50 for photocytotoxicity against human MCF7 cells. The class given is toxicity, cell-based. Conditions: read-out: Ratio CC50/EC50.
Data set [2] concerns MCF7. The data set is described as follows: Induction of mitochondrial dysfunction in human MCF7 cells assessed as clustering and swelling in location at 2 uM irradiated with 1.5 J/cm2 UV-light measured after 20 to 120 mins by Mitotracker orange CMTM-ROS/Nuclear green staining based confocal microscopic method. In kind it is functional, cell-based.
A short description of data set [3]: Dark toxicity against human MCF7 cells assessed as reduction in cell survival measured after 30 mins by MTT assay. The class given is cell-based. (In general: Tetrazolium dyes change colour on reduction, which living cells bring about.)
Data set [4] can be described thus: Induction of singlet oxygen sensitization in aqueous acetonitrile solution irradiated with laser flash photolysis assessed as signal intensity absorbance at 355 nanometer by spectroscopic method. Conditions: buffer. The class given is physicochemical.
In data set [5] the test system is MCF7. Put plainly: Induction of lysosomal dysfunction in human MCF7 cells at 2 uM irradiated with 1.5 J/cm2 UV-light measured after 20 mins by Lysotracker green DND staining based confocal microscopic method. The class given is functional, cell-based.
The nature of data set [6]: Induction of apoptosis in human MCF7 cells assessed as late apoptotic cells at photocytotoxic EC50 irradiated with 1.5 J/cm2 UV-light measured after 6 hrs by 7-AAD/PE annexin V staining based FACS analysis. The class given is functional. For orientation: A flow cytometer gives signals particle by particle.
Data set [7] in a line: Photocytotoxicity against human HeLa cells assessed as reduction in cell survival irradiated with 1.5 J/cm2 UV-light for 5 mins measured after 48 hrs by MTT assay. In kind it is functional, cell-based. To be noted: light or radiation study.
Data set [8] is described as follows: Induction of singlet oxygen photogeneration in aqueous acetonitrile solution of ADPA assessed as photobleaching of anthracene absorption upon irradiation at 2.3 10^-5M at 315 nanometer after 1 hr by UV absorption method. In kind it is physicochemical. Conditions: buffer.
For data set [9], the system named is MCF7. Put plainly: Induction of mitochondrial dysfunction in human MCF7 cells assessed as accumulation of mitochondrial signal at perinuclear level at 2 uM irradiated with 1.5 J/cm2 UV-light measured after 20 to 120 mins by Mitotracker orange CMTM-ROS/Nuclear green staining based confocal microscopic method. In kind it is functional, cell-based.
Data set [10] in a line: Induction of apoptosis in human MCF7 cells assessed as early apoptotic cells at photocytotoxic EC50 irradiated with 1.5 J/cm2 UV-light measured after 6 hrs by 7-AAD/PE annexin V staining based FACS analysis (reference value: 17 %). The class given is functional.
The nature of data set [11]: Dark toxicity against human HeLa cells assessed as reduction in cell survival measured after 30 mins by MTT assay. In kind it is cell-based.
Data set [12] in a line: Induction of singlet oxygen sensitization in aqueous acetonitrile solution irradiated with laser flash photolysis assessed as signal intensity absorbance at 630 nanometer by spectroscopic method. In kind it is physicochemical. To be noted: buffer.
The nature of data set [13]: Photocytotoxicity against human HT-29 cells assessed as reduction in cell survival irradiated with 1.5 J/cm2 UV-light for 5 mins measured after 48 hrs by MTT assay. In kind it is functional, cell-based. To be noted: HT-29, light or radiation study.
Data set [14] is described as follows: Dark toxicity against human HT-29 cells assessed as reduction in cell survival measured after 30 mins by MTT assay. In kind it is cell-based.
Data set [15] relates to MCF7. Put plainly: Induction of lysosomal membrane impairment in human MCF7 cells assessed as increase in dye accumulation in cytoplasm at 2 uM irradiated with 1.5 J/cm2 UV-light measured after 20 mins by Lysotracker green DND staining based confocal microscopic method. In kind it is functional, cell-based.
Data set [16] in a line: Photocytotoxicity against human MCF7 cells assessed as reduction in cell survival irradiated with 1.5 J/cm2 UV-light for 5 mins measured after 48 hrs by MTT assay. The class given is functional, cell-based. Conditions: MCF7, light or radiation study.
The subject of data set [17] is MCF7. Put plainly: Induction of lysosomal dysfunction in human MCF7 cells at 2 uM irradiated with 1.5 J/cm2 UV-light measured after 2 hrs by Lysotracker green DND staining based confocal microscopic method. In kind it is functional, cell-based.
Data set [18] relates to MCF7. Put plainly: Dark toxicity against human MCF7 cells assessed as increase in production of radical oxygen species at 1 to 4 uM after 2 hrs by H2DCFDA dye based fluorescence assay. In kind it is cell-based. Conditions: mcf7, 2 h.
The nature of data set [19]: Photocytotoxicity against human MCF7 cells assessed as increase in production of radical oxygen species at 4 uM pretreated for 30 mins followed by 1.5 J/cm2 UV-light irradiation for 5 mins measured after 2 hrs by H2DCFDA dye based fluorescence assay relative to control. The class given is functional.
Data set [20] in a line: Induction of apoptosis in human MCF7 cells assessed as necrotic cells at photocytotoxic EC50 irradiated with 1.5 J/cm2 UV-light measured after 6 hrs by 7-AAD/PE annexin V staining based FACS analysis. In kind it is functional.
Data set [21] in a line: Induction of lysosomal dysfunction in human MCF7 cells at 2 uM measured after 20 mins under dark condition by Lysotracker green DND staining based confocal microscopic method. The class given is cell-based. Conditions: mcf7, 20 min.
Data set [22] can be described thus: Selectivity index, ratio of CC50 for cytotoxicity against human HeLa cells to EC50 for photocytotoxicity against human HeLa cells. Conditions: read-out: Ratio CC50/EC50. The class given is toxicity, cell-based.
Data set [23] is described as follows: Induction of mitochondrial dysfunction in human MCF7 cells at 2 uM measured after 20 mins under dark condition by Mitotracker orange CMTM-ROS/Nuclear green staining based confocal microscopic method. In kind it is cell-based. Conditions: mcf7, 20 min.
Data set [24] can be described thus: Selectivity index, ratio CC50 for cytotoxicity against human HT-29 cells to EC50 for photocytotoxicity against human HT-29 cells. The class given is toxicity, cell-based. Conditions: read-out: Ratio CC50/EC50.
The subject of data set [25] is MCF7. The data set is described as follows: Dark toxicity against human MCF7 cells assessed as increase in production of radical oxygen species at 4 uM after 2 hrs by H2DCFDA dye based fluorescence assay. In kind it is cell-based. To be noted: mcf7, 2 h.
The nature of data set [26]: Induction of singlet oxygen sensitization in aqueous acetonitrile solution irradiated with laser flash photolysis assessed as signal intensity absorbance at 610 nanometer by spectroscopic method. In kind it is physicochemical. To be noted: buffer.
The test system of data set [27] is MCF7. Put plainly: Induction of mitochondrial fusion in human MCF7 cells at 400 nM irradiated with 1.5 J/cm2 UV-light measured after 6 hrs by Mitotracker orange CMTM-ROS/Nuclear green staining based confocal microscopic method. In kind it is functional, cell-based.
For data set [28], the system named is MCF7. Put plainly: Induction of lysosomal dysfunction in human MCF7 cells at 400 nM irradiated with 1.5 J/cm2 UV-light measured after 6 hrs by Lysotracker green DND staining based confocal microscopic method. The class given is functional, cell-based.
Data set [29] is described as follows: Photocytotoxicity against human MCF7 cells assessed as increase in production of radical oxygen species at 400 nM pretreated for 30 mins followed by 1.5 J/cm2 UV-light irradiation for 5 mins measured after 6 hrs by H2DCFDA dye based fluorescence assay relative to control. In kind it is functional.
Data set [30] is described as follows: Photocytotoxicity against human MCF7 cells assessed as increase in production of radical oxygen species at 400 nM pretreated for 30 mins followed by 1.5 J/cm2 UV-light irradiation for 5 mins measured after 2 hrs by H2DCFDA dye based fluorescence assay relative to control. In kind it is functional.

What is called CC50 is the concentration that lowers cell viability or growth by half. What is called EC50 is the concentration giving half of the maximal effect.

Molecules are shown by their SMILES. Active and inactive are the calls of the source. No cut-off for these calls is given here. A value given as a limit tells only on which side of the number the result lay.

Regarding `CCOC(=O)c1cc2c(n1C)-c1nc(NC3CCCCC3)ncc1CCC2`, the selectivity ratio in data set [1] was > 1250; in data set [22] it was > 1270; in data set [24] it was > 1110. Moreover, the outcome in the data set on MCF7 [2], in the data set with MCF7 [5], in the data set with MCF7 [9], with MCF7 [15] and with MCF7 [17] was Active. Besides, the CC50 at 0.5 h in [3], in data set [11] and in data set [14] was > 100 µM in each case. The Activity was 0.012 in data set [4]; 13% in data set [6]; “Active” in data set [8]; 47% in data set [10]; 0.052 in data set [12]; “Non-Toxic” with MCF7 [18]. Further, the Activity is 222% in data set [19], 11% in [20], “Non-Toxic” in [21] and “Non-Toxic” in data set [23]. Also, the EC50 in data set [7] was found to be 0.08 µM; in data set [13], 0.09 µM; in [16], 0.08 µM.
Consider `Cn1c(C(N)=O)cc2c1-c1nc(N)ncc1CCC2`, for which the Activity entry with MCF7 [25] was “Non-Toxic”; in [4], 0.012; in [8], “Active”; in data set [10] it was 22%; in data set [26] it was 0.0146; in data set [21], “Non-Toxic”. The Activity entry in data set [23] is “Non-Toxic”. Further, the selectivity ratio in data set [1] was > 1.5; in [22] it was > 11. In addition, the cytotoxic concentration (CC50) at 0.5 h in data set [3], in [11] and in data set [14] was > 100 µM throughout. Moreover, the values for the EC50 in data set [7], in [13] and in [16] were 8.75 µM, > 100 µM and 66 µM, respectively.
Regarding `CCCCCCCCCCCCCC(=O)O[C@@H]1[C@@H](C)[C@@]2(O)[C@@H](C=C(CO)C[C@]3(O)C(=O)C(C)=C[C@@H]23)[C@@H]2C(C)(C)[C@]12OC(C)=O` [PHORBOL MYRISTATE ACETATE], the result with MCF7 [27] and in the data set with MCF7 [28] was Active. The Activity in data set [29] amounted to 420%; in data set [30], 120%.
